From US9745274B2, “Compound, organic cation transporter 3 detection agent, and organic cation transporter 3 activity inhibitor” (SHIN NIPPON BIOMEDICAL LABORATORIES, LTD., priority 2013, dated 2017)
pIC50: −log10 of the molar value.

What was measured:
[1] = biological target: T1, human organic cation transporter 3 (hOCT3) (Homo sapiens, UniProt O75751); assay: Histamine incorporation experiment in HEK293 cells expressing hOCT3 (OCT3 inhibition activity); type: cell-based; details: for OCT3 Inhibition Rate (%): Tables 3-1 to 3-15, in a manner similar to Example 12 (30 μM there), concentration not given in the tables; for remaining activity at 30 µM / remaining activity at 10 µM: HEK293, 1 min, no inhibitor = 100%, read-out: Histamine Incorporation Rate to Control (%); for remaining activity at 30 µM / inhibition at 30 µM: Compound Concentration 30 μM; for remaining activity at 30 µM: [3H]histamine 100 nM, 1 minute; for inhibition at 30 µM / inhibition at 10 µM: HEK293, 100% minus histamine incorporation rate; for remaining activity at 10 µM / inhibition at 10 µM: Compound Concentration 10 μM
T1 construct: expressed in transfected cells; host or cells: HEK293
T1 sequence (O75751 1-556): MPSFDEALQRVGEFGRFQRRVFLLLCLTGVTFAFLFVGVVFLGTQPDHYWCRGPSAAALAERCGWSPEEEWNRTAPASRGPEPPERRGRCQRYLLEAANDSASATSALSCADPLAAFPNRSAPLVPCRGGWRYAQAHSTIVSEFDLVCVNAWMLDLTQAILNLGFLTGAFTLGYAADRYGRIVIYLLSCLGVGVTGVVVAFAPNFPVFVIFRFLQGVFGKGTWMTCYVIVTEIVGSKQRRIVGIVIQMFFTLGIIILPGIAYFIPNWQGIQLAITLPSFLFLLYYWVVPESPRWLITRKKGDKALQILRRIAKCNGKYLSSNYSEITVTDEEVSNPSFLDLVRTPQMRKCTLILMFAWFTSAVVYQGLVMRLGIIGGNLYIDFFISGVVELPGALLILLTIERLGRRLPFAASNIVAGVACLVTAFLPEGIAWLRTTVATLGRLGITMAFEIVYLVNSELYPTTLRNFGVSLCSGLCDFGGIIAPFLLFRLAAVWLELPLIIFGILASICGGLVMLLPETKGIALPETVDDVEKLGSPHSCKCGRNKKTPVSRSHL
Method: In order to measure an activity that inhibits OCT3 from incorporating a substrate (OCT3 inhibition activity) for each compound, histamine incorporation experiments as described below were performed.
Histamine incorporation experiments were performed in accordance with a method disclosed in Br J Pharmacol. 2002; 136(6): 829-836. In the experiments, HEK293 cells were used. The HEK293 cell is a human embryonal renal cell strain expressing human organic cation transporter 3 (hOCT3). The HEK 293 cells were inoculated onto 24-well plates at 1.5×10^5 cells/well, and were cultivated overnight in a carbon dioxide incubator. Test substances were dissolved in 100% DMSO solution and then dissolved in HBSS-HEPES solution (buffer solution prepared by dissolving 9.7 g Hank's Balanced Salt, 1.4% sodium bicarbonate 25 mL, and 1M HEPES 25 mL in 940 mL ultra pure water, and by adjusting to pH7.4 with 1M sodium hydroxide). After removing culture media for cell culture, pretreatment was performed for 5 minutes with 1 mL HBSS-HEPES solution. Then, the test substance and [3H]histamine (final concentration 100 nM) were added to the cells and reacted for 1 minute at room temperature. After the reaction was completed, the reaction was stopped by ice-cooled HBSS-HEPES solution, extracellular fluid was aspirated by an aspirator, and then the cells were washed twice with HBSS-HEPES. After washing, the cells were dissolved in 0.5M sodium hydroxide solution. The amount of histamine in the cells was found by measuring a radioactivity in a cell lysis solution by a liquid scintillation counter. Protein content in the cells was measured by Lowry method (J Biol Chem. 1951; 193(1): 265-75) by using the cell lysis solution, and translated into histamine incorporation amount per protein content for each experiment. A histamine incorporation rate (%) in the presence of 30 μM of the test substance was calculated by regarding a histamine incorporation amount in a case of no incorporation inhibitor as 100% (control) of histamine incorporation rate. A value (%) obtained by subtracting the histamine incorporation rate from 100(%) was calculated as an OCT3 inhibition rate (%).
Note that a histamine incorporation rate (%) in the presence of 10 μM of the test substance was calculated by regarding a histamine incorporation amount in a case of no incorporation inhibitor as 100% (control) of histamine incorporation rate. A value (%) obtained by subtracting the histamine incorporation rate from 100(%) was calculated as an OCT3 inhibition rate (%). […]

[2] = biological target: T1, human organic cation transporter 3 (hOCT3); assay: as above; type: cell-based; details: control curve; for IC80: HEK293

Row | SMILES | OCT3 Inhibition Rate (%) [1] [%] | also measured
1 | NC(N)=Nc1nc(CSCCc2ncc(CCc3ccccc3)o2)cs1 [SR-2051] | 38.8 | 
2 | NC(N)=Nc1nc(CS/C(N)=N\S(N)(=O)=O)cs1 [SR-3155] | −10.3 | 
3 | NC(N)=Nc1nc(CNCCc2ccc(F)cc2)cs1 [SR-3136] | 28.6 | 
4 | N=C(N)CCCCc1csc(N=C(N)N)n1 [SR-2068, 5-[2-(diaminomethyleneamino)thiazole-4-yl]pentaimideamide] | 28.5 | 
5 | N#C/N=C(\N)NCCCCc1csc(N=C(N)N)n1 [SR-2069] |  | remaining activity at 30 µM [1]: 48.6%; inhibition at 30 µM [1]: 51.4%
6 | NC(N)=Nc1nc(COCc2ccc(F)cc2)cs1 [SR-3129] | 20.6 | 
7 | Cc1nc(CCSCc2csc(N=C3NCCN3)n2)[nH]c(=O)c1CCc1ccccc1 [SR-2213] | 45.8 | 
8 | N=C(N)NCc1csc(N=C(N)N)n1 [SR-2236] | −1.4 | 
9 | NC(N)=Nc1ncc(CSCCC(N)=NS(=O)(=O)c2ccccc2)s1 [SR-3203] | 22.2 | 
10 | Cc1nc(CCCCc2csc(N=C(N)N)n2)[nH]c(=O)c1CCc1ccccc1 [SR-2076] |  | IC80 [2]: 8 µM; pIC50 [2]: 5.72; remaining activity at 10 µM [1]: 14.8%; remaining activity at 30 µM [1]: 11.8%; inhibition at 10 µM [1]: 85.2%; inhibition at 30 µM [1]: 88.2%
11 | NC(N)=Nc1cccc(CSCC/C(N)=N/S(=O)(=O)C(F)(F)F)n1 [SR-2022] |  | IC80 [2]: 30 µM; pIC50 [2]: 4.98; remaining activity at 10 µM [1]: 50%; remaining activity at 30 µM [1]: 21%; inhibition at 10 µM [1]: 50%; inhibition at 30 µM [1]: 79%
12 | Cc1nc(CCCOc2cc(N=C(N)N)ccn2)[nH]c(=O)c1CCc1ccccc1 [SR-2064] | 17.5 | 
13 | NC(N)=Nc1cccc(CSCCC(N)=NS(N)(=O)=O)n1 [SR-2230] |  | remaining activity at 30 µM [1]: 41.4%; inhibition at 30 µM [1]: 58.6%
14 | Cc1nc(CCSCc2csc(N(C)C)n2)[nH]c(=O)c1CCc1ccccc1 [SR-2011] | 37.9 | 
15 | N=C(N)CCSCc1ccc([N+](=O)[O-])o1 [SR-2233] | 4.7 | 
16 | NC(N)=Nc1nc(CCCCNC(=O)CO)cs1 [SR-2073] |  | remaining activity at 30 µM [1]: 52.9%; inhibition at 30 µM [1]: 47.1%
17 | Cc1nc(CCSCc2cccc(N=C(N)N)n2)[nH]c(=O)c1CCc1ccccc1 [SR-2036] |  | IC80 [2]: 27 µM; pIC50 [2]: 5.23; remaining activity at 10 µM [1]: 33.7%; remaining activity at 30 µM [1]: 15.4%; inhibition at 10 µM [1]: 66.3%; inhibition at 30 µM [1]: 84.6%

Row | SMILES | OCT3 Inhibition Rate (%) [1] [%] | also measured
18 | Cc1nc(CSCCc2nc(=O)c(CCc3ccccc3)c(C)[nH]2)cs1 [SR-2239] | 33.2 | 
19 | N=C(NCc1csc(N=C(N)N)n1)NS(N)(=O)=O [SR-3154] | −11.5 | 
20 | N=C(N)CCSCc1ccc([N+](=O)[O-])n1Cc1ccccc1 [SR-2234] | 50.2 | 
21 | Cc1nc(CCSCc2ccc([N+](=O)[O-])n2Cc2ccccc2)[nH]c(=O)c1CCc1ccccc1 [SR-2235] | 8.7 | 
22 | NC(N)=Nc1nc(CSc2ccc(F)cc2)cs1 [SR-3123] | 47.2 | 
23 | NC(N)=Nc1nc(CCCc2ccc(F)cc2)cs1 [SR-3131] | 22.3 | 
24 | N=C(N)NCCCCc1csc(N=C(N)N)n1 [SR-2071] | 27.0 | 
25 | NC(N)=Nc1nc(CSCCC(=O)NC(=O)c2ccccc2)cs1 [SR-2226] | 21.8 | 
26 | CNC(=O)CCCCc1csc(N=C(N)N)n1 [SR-2075] | 23.9 | 
27 | NC(N)=Nc1nc(CSCCNC(=O)CO)cs1 [SR-2045] |  | IC80 [2]: 56 µM; pIC50 [2]: 4.91; remaining activity at 10 µM [1]: 56.6%; remaining activity at 30 µM [1]: 35.2%; inhibition at 10 µM [1]: 43.4%; inhibition at 30 µM [1]: 64.8%
28 | CNCCCCc1csc(N=C(N)N)n1 [SR-2204] | 3.4 | 
29 | CN/C(=C\[N+](=O)[O-])NCCSCc1csc(N=C(N)N)n1 [SR-2044] | 7.9 | 
30 | Cc1[nH]c(CCSCc2cscn2)nc(=O)c1CCc1ccccc1 [SR-3003] | 40.6 | 
31 | NC(N)=Nc1nc(CCCC/C(N)=N/S(N)(=O)=O)cs1 [SR-2066] |  | remaining activity at 30 µM [1]: 58.1%; inhibition at 30 µM [1]: 41.9%
32 | NC(N)=Nc1cc(CSCCC(N)=NS(N)(=O)=O)ccn1 [SR-2229] |  | remaining activity at 30 µM [1]: 55.8%; inhibition at 30 µM [1]: 44.2%
33 | NC(N)=Nc1nc(CSCCc2ccc(F)cc2)cs1 [SR-3137] | 33.3 | 

More lines, main results first:

Row | OCT3 Inhibition Rate (%) [1] [%] | SMILES | also measured
34 | 8.7 | N=C(N)CCSCc1csc(N=C2NCCN2)n1 [SR-3208] | 
35 | 6.2 | NC(N)=Nc1nc(CS/C(N)=N/S(=O)(=O)C(F)(F)F)cs1 [SR-3159] | 
36 | −7.4 | Cc1nc(CSCC/C(N)=N/S(=O)(=O)C(F)(F)F)cs1 [SR-2238] | 
37 | −14.7 | NC(CCSCc1cscn1)=NS(N)(=O)=O [SR-3001] | 
38 | −8.1 | CSc1nc(CSCCC(N)=NS(=O)(=O)C(F)(F)F)cs1 [SR-3012] | 
39 | 13.8 | CSc1nc(CSCCC(N)=NS(N)(=O)=O)cs1 [SR-2227] | 
40 | −0.2 | NC(CCSCc1cscn1)=NS(=O)(=O)C(F)(F)F [SR-3002] | 
41 | 16.3 | CNC(=O)CCSCc1csc(N=C(N)N)n1 [SR-2203] | 
42 | 61.5 | NC(N)=Nc1nc(CSCCC(N)=NS(=O)(=O)C(F)(F)F)cs1 [SR-2216] | 
43 | −4.0 | CC(C)c1nc(CSCCC(N)=NS(=O)(=O)C(F)(F)F)cs1 [SR-3021] | 
44 | 25.4 | NC(N)=Nc1cccc(CSCC/C(N)=N/S(=O)(=O)C(F)(F)F)c1 [SR-2020] | 
45 | −7.8 | CN(C)c1nc(CSCC/C(N)=N/S(=O)(=O)C(F)(F)F)cs1 [SR-2005] | 
46 | 30.4 | CC(=O)NC(=O)CCSCc1csc(N=C(N)N)n1 [SR-2225] | 
47 | 6.7 | CC(C)c1nc(CSCCC(N)=NS(N)(=O)=O)cs1 [SR-2207, (Z)-3-((2-isopropylthiazol-4-yl)methylthio)-N′-sulfamoylpropanimidamide] | 
48 | 43.0 | CCCCN/C(N)=N/c1nc(CSCCC(=N)N)cs1 [SR-3209] | 
49 | 17.6 | Cc1nc(CSCC/C(N)=N/S(N)(=O)=O)cs1 [SR-2228] | 
